Data taken from US8513229B2, “4-Azetidinyl-1-phenyl-cyclohexane antagonists of CCR2” (Janssen Pharmaceutica NV, priority 2009, dated 2013).

Target: T1, CCR2 (Homo sapiens, UniProt P41597)
T1 construct: host or cells: THP-1 human monocytic cells
T1 sequence (P41597 1-360 isoform P41597-2): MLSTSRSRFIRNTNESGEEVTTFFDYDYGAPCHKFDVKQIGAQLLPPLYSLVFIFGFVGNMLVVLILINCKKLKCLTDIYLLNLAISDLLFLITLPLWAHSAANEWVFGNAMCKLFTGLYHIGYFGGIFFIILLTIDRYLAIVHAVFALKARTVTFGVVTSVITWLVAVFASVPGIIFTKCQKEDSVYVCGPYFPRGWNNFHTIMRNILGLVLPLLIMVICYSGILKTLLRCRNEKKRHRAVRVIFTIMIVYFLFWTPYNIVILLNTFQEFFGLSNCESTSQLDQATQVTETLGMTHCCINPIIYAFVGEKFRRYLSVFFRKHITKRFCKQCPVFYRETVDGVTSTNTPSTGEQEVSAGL
Assay: MCP-1 Receptor Binding Assay in THP-1 Cells
Settings: 0.5 nM 125I labeled MCP-1, 2 hours at 30° C., read-out: Inhibition of MCP-1 Binding IC50 CCR2 Binding
Protocol: MCP-1 Receptor Binding Assay in THP-1 Cells
Human monocytic cell line THP-1 cells were obtained from American Type Culture Collection (Manassas, Va., USA). […] The cell density was maintained […].
1 μM cold MCP-1 was used for nonspecific binding.

Row | IC50 [nM] | SMILES
1 | 420 | CS(=O)(=O)N(c1cc(C(=O)NCC(=O)NC2CN(C3CCC(c4ccccc4)CC3)C2)cc(C(F)(F)F)c1)S(C)(=O)=O (stereo not shown) [Example 80, 3-Bis methanesulfonyl-N-{[1-(4-phenyl-cyclohexyl)-azetidin-3-ylcarbamoyl]-methyl}-5-trifluoromethyl-benzamide]
2 | 5300 | NC(=O)c1ccc(C2(O)CCC(N3CC(NC(=O)CNC(=O)c4cccc(C(F)(F)F)c4)C3)CC2)cc1 (single isomer, unassigned) [Example 55a, N-({1-[4-(4-benzamide)-4-hydroxy-cyclohexyl]-azetidin-3-ylcarbamoyl}-methyl)-3-trifluoromethyl-benzamide]
3 | 440 | CS(=O)(=O)c1cccc(C2CCC(N3CC(NC(=O)CNC(=O)c4cccc(C(F)(F)F)c4)C3)CC2)c1 (single isomer, unassigned) [Example 14a, N-({1-[4-(3-Methanesulfonyl-phenyl)-cyclohexyl]-azetidin-3-ylcarbamoyl}-methyl)-3-trifluoromethyl-benzamide]
4 | 130 | O=C(CNC(=O)c1cccc(C(F)(F)F)c1)NC1CN(C2CCC(O)(c3ccc(O)cc3)CC2)C1 (stereo not shown) [Example 42, N-({1-[4-Hydroxy-4-(4-hydroxy-phenyl)-cyclohexyl]-azetidin-3-ylcarbamoyl}-methyl)-3-trifluoromethyl-benzamide]
5 | 100 | Cc1cccc(C2(O)CCC(N3CC(NC(=O)CNC(=O)c4cccc(C(F)(F)F)c4)C3)CC2)c1 (stereo not shown) [Example 60, N-{[1-(4-Hydroxy-4-m-tolyl-cyclohexyl)-azetidin-3-ylcarbamoyl]-methyl}-3-trifluoromethyl-benzamide]
6 | 620 | O=C(CNC(=O)c1cc(C(F)(F)F)ccc1F)NC1CN(C2CCC(c3ccccc3)CC2)C1 (stereo not shown) [Example 66, 2-Fluoro-N-{[1-(4-phenyl-cyclohexyl)-azetidin-3-ylcarbamoyl]-methyl}-5-trifluoromethyl-benzamide]
7 | 46 | Nc1ccc(C(=O)NCC(=O)NC2CN(C3CCC(c4ccccc4)CC3)C2)cc1C(F)(F)F (stereo not shown) [Example 74, 4-Amino-N-{[1-(4-phenyl-cyclohexyl)-azetidin-3-ylcarbamoyl]-methyl}-3-trifluoromethyl-benzamide]
8 | 190 | O=C(CNC(=O)c1cccc(C(F)(F)F)c1)NC1CN(C2CCC(O)(c3ccc4oc(=O)[nH]c4c3)CC2)C1 (single isomer, unassigned) [Example 35a, N-({1-[4-Hydroxy-4-(2-oxo-2,3-dihydro-benzooxazol-5-yl)-cyclohexyl]-azetidin-3-ylcarbamoyl}-methyl)-3-trifluoromethyl-benzamide]
9 | 61 | O=C(CNC(=O)c1cccc(C(F)(F)F)c1)NC1CN(C2CCC(c3ccc(N4CCCC4)cc3)CC2)C1 (stereo not shown) [Example 13, N-({1-[4-(4-Pyrrolidin-1-yl-phenyl)-cyclohexyl]-azetidin-3-ylcarbamoyl}-methyl)-3-trifluoromethyl-benzamide]
10 | 69 | COc1cccc(C2(O)CCC(N3CC(NC(=O)CNC(=O)c4cccc(C(F)(F)F)c4)C3)CC2)c1 (single isomer, unassigned) [Example 37a, N-({1-[4-Hydroxy-4-(3-methoxy-phenyl)-cyclohexyl]-azetidin-3-ylcarbamoyl}-methyl)-3-trifluoromethyl-benzamide]
11 | 130 | CS(=O)(=O)Nc1cccc(C2(O)CCC(N3CC(NC(=O)CNC(=O)c4cccc(C(F)(F)F)c4)C3)CC2)c1 (stereo not shown) [Example 61, N-({1-[4-Hydroxy-4-(3-methanesulfonylamino-phenyl)-cyclohexyl]-azetidin-3-ylcarbamoyl}-methyl)-3-trifluoromethyl-benzamide]
12 | 11000 | O=C(CNC(=O)c1cc(O)cc(C(F)(F)F)c1)NC1CN(C2CCC(c3ccccc3)CC2)C1 (stereo not shown) [Example 81, 3-Hydroxy-N-{[1-(4-phenyl-cyclohexyl)-azetidin-3-ylcarbamoyl]-methyl}-5-trifluoromethyl-benzamide]
13 | 21 | O=C(CNC(=O)c1cccc(C(F)(F)F)c1)NC1CN(C2CCC(c3ccc(O)cc3)CC2)C1 (single isomer, unassigned) [Example 40a, N-({1-[4-(4-Hydroxy-phenyl)-cyclohexyl]-azetidin-3-ylcarbamoyl}-methyl)-3-trifluoromethyl-benzamide]
14 | 280 | CS(=O)(=O)c1ccc(C2CCC(N3CC(NC(=O)CNC(=O)c4cccc(C(F)(F)F)c4)C3)CC2)cc1 (stereo not shown) [Example 29, N-({1-[4-(4-Methanesulfonyl-phenyl)-cyclohexyl]-azetidin-3-ylcarbamoyl}-methyl)-3-trifluoromethyl-benzamide]
15 | 740 | COc1ccc(C(F)(F)F)cc1C(=O)NCC(=O)NC1CN(C2CCC(c3ccccc3)CC2)C1 (stereo not shown) [Example 68, 2-Methoxy-N-{[1-(4-phenyl-cyclohexyl)-azetidin-3-ylcarbamoyl]-methyl}-5-trifluoromethyl-benzamide]
16 | 100 | Cc1ccc(C2(O)CCC(N3CC(NC(=O)CNC(=O)c4cccc(C(F)(F)F)c4)C3)CC2)cc1 (stereo not shown) [Example 59, N-{[1-(4-Hydroxy-4-p-tolyl-cyclohexyl)-azetidin-3-ylcarbamoyl]-methyl}-3-trifluoromethyl-benzamide]
17 | 27 | O=C(CNC(=O)c1cccc(C(F)(F)F)c1)NC1CN(C2CCC(c3ccc4nc[nH]c4c3)CC2)C1 (single isomer, unassigned) [Example 20a, N-({1-[4-(3H-Benzoimidazol-5-yl)-cyclohexyl]-azetidin-3-ylcarbamoyl}-methyl)-3-trifluoromethyl-benzamide]
18 | 135 | CCOC(=O)c1cccc(C2CCC(N3CC(NC(=O)CNC(=O)c4cccc(C(F)(F)F)c4)C3)CC2)c1 (single isomer, unassigned) [Example 11a, 3-(4-{3-[2-(3-Trifluoromethyl-benzoylamino)-acetylamino]-azetidin-1-yl}-cyclohexyl)-benzoic acid ethyl ester]
19 | 1.2 | O=C(CNC(=O)c1cccc(C(F)(F)F)c1)NC1CN(C2CCC(c3ccc4c(c3)OCO4)CC2)C1 (single isomer, unassigned) [Example 1a, N-{[1-(4-Benzo[1,3]dioxol-5-yl-cyclohexyl)-azetidin-3-ylcarbamoyl]-methyl}-3-trifluoromethyl-benzamide]
20 | 413 | N#Cc1cccc(C2(O)CCC(N3CC(NC(=O)CNC(=O)c4cccc(C(F)(F)F)c4)C3)CC2)c1 (single isomer, unassigned) [Example 48a, N-({1-[4-(3-Cyano-phenyl)-4-hydroxy-cyclohexyl]-azetidin-3-ylcarbamoyl}-methyl)-3-trifluoromethyl-benzamide]

Row | SMILES | IC50 [nM]
21 | NC1(c2ccc3c(c2)OCO3)CCC(N2CC(NC(=O)CNC(=O)c3cccc(C(F)(F)F)c3)C2)CC1 (single isomer, unassigned) [Example 85a, N-{[1-(4-Amino-4-benzo[1,3]dioxol-5-yl-cyclohexyl)-azetidin-3-ylcarbamoyl]-methyl}-3-trifluoromethyl-benzamide] | 280
22 | COc1ccc(C2(N)CCC(N3CC(NC(=O)CNC(=O)c4cccc(C(F)(F)F)c4)C3)CC2)cc1 (stereo not shown) [Example 86, N-({1-[4-Amino-4-(4-methoxy-phenyl)-cyclohexyl]-azetidin-3-ylcarbamoyl}-methyl)-3-trifluoromethyl-benzamide] | 320
